The nature of data set [1]: Plasma concentration-time course and half-life in rats. To be noted: Sprague-Dawley, rat, in vivo, ip, 3 mg/kg.
Method: (§1) The drug half-lives were calculated using GraphPad Prism 8.0.2 (GraphPad Software, LaJolla, CA).
(§2) Returning to 40% B in 0.10 min. The flow rate was set at 0.5 mL/min. The column oven was set at 45 °C, and 5 μL of extract was injected. All additives and mobile phases were LCMS-grade and purchased from Merck (Milan, Italy).
(§3) The ESI was operated in positive mode. […] Interface temperature, desolvation line temperature, and heat block temperature were set, respectively, to 250, 250, and 350 °C. Nebulizing, drying (N2), and heating gas (air) were set, respectively, to 3, 10, and 10 L/min.
Data set [2] addresses T1, Kv7.4 channels (Homo sapiens, UniProt P56696).
T1 construct: expressed in transfected cells; host or cells: CHO cells
The experiment in a line: Whole-cell patch-clamp electrophysiology in CHO cells expressing Kv7.4. The class given is cell-based. The settings on record: 0.1 μM, Kv7.4 currents. The method, then:
In order to evaluate the effects of compound 60 on other Kv7 channels, its ability to activate Kv7.4 channels expressed in CHO cells was also investigated. […]. During the recording, constant perfusion of extracellular solution was maintained. The extracellular solution contained (in mM): 138 NaCl, 2 CaCl2, 5.4 KCl, 1 MgCl2, 10 glucose, and 10 HEPES, at pH 7.4, with NaOH. The pipette (intracellular) solution contained (in mM): 140 KCl, 2 MgCl2, 10 EGTA, 10 HEPES, 5 Mg^2+-ATP, at pH 7.3–7.4, with KOH. Current was recorded using an Axopatch-200A amplifier, filtered at 5 kHz, and digitized using a DigiData 1440A (Molecular Devices). The pCLAMP software (version 10.2) was used for data acquisition and analysis (Molecular Devices). To evaluate the activity of each compound on Kv7.2 + Kv7.3 currents, the cells were clamped at −80 mV and conductance–voltage curves (G/V curves; activation curves) were generated by normalizing to the maximal value of the instantaneous isopotential currents at 0 mV and expressing the normalized values as a function of the preceding voltages. Data were fit to a Boltzmann distribution of the following form: y = max/[1 + exp (V1/2 – V)/k], where V is the test potential, V1/2 is the half-activation potential, and k is the slope factor.

Data set [3] can be described thus: in vivo. The procedure: The animals were sacrificed after 60 min, and brain and blood were collected.
For the assessment of plasmatic concentration, 20 μL of plasma was treated with 100 μL of methanol in a test tube. The tube was vortexed for 30 s. Then, the sample was centrifuged for 10 min at 14680 rpm, at 4 °C. 90 μL of supernatant was dried under nitrogen, reconstituted in 150 μL of MeOH, and then injected into the UHPLC–MS/MS.
Frozen brain tissues were lyophilized overnight, then weighed, carefully homogenized, and extracted with methanol in a 10 mg:[…] tissue:solvent ratio. The samples were vortexed for 30 s, treated in an ultrasonic bath for 5 min, and then centrifuged for 10 min at 14680 rpm, at 4 °C.
Returning to 40% B in 0.10 min.
The ESI was operated in positive mode.

Data set [4] in a line: in vivo. The settings on record: Sprague-Dawley, rat, ip, 0.3 mg/kg.
Method: as §1, §2, §3

Molecules are shown by their SMILES.

As to `CCOC(=O)Nc1ccc(NCc2ccc(F)cc2)cc1N` [RET, retigabine], the half-life – broadly, the time in which the quantity being followed falls by half – in data set [1] was 144 min.

In data set [2], `CC(C)(C)CC(=O)Nc1ccc(NCc2ccc(C(F)(F)F)cc2)c(F)c1N` [compound 60, N-(2-Amino-3-fluoro-4-((4-(trifluoromethyl)benzyl)amino)phenyl)-3,3-dimethylbutanamide] registered an Idrug/Icontrol of 2.5 ± 0.3 and a ΔV1/2 of −29.2 ± 4.4 mV. For the same molecule, in data set [3] (male, C57Bl/6, mouse, in vivo, ip, 1 mg/kg), the Kp at 1 h came to 40.4. The molecule further registered a concentration at 60 min in data set [3] (male, C57Bl/6, mouse, in vivo, ip, 1 mg/kg, Brain concentration) of 727000 ± 179000 ng/g. In data set [3] (male, C57Bl/6, mouse, in vivo, ip, 1 mg/kg, Plasma concentration), this molecule gave a concentration at 60 min of 18200 ± 3700 ng/g. Besides, the “Brain/plasma ratio higher than that of retigabine” value in data set [3] (mice, 1 mg/kg i.p., 60 min) stood at 18 times. In data set [4], the concentration at 0.5 h worked out at 9 ng/mL, the concentration at 2 h was found to be 8.7 ng/mL, the concentration at 4 h is 6.8 ng/mL and the concentration at 8 h was 5.4 ng/mL. Moreover, in data set [4], the concentration at 24 h amounted to 0 ng/mL and the half-life is 1010 min.

These data come from article PMC9421656, “Beyond Retigabine: Design, Synthesis, and Pharmacological Characterization of a Potent and Chemically Stable Neuronal Kv7 Channel Activator with Anticonvulsant Activity” (Journal of Medicinal Chemistry, 2022).
